≈ marks a conversion by molar mass, not a printed value.
How the values were obtained:
Assay type in all cases: functional
[1] = test system: Enterococcus faecalis; assay: Antibacterial activity against Enterococcus faecalis ATCC 6569 at 10 % serum; details: ATCC 6569, Serum
[2] = test system: Staphylococcus aureus; assay: Antibacterial activity against methicillin susceptible staphylococcus aureus ATCC 29213 at 10 % serum
[3] = test system: Staphylococcus aureus; assay: Antibacterial activity against methicillin-resistant staphylococcus aureus ATCC 43300 at 0 % serum
[4] = test system: Staphylococcus aureus; assay: Antibacterial activity against methicillin susceptible staphylococcus aureus ATCC 29213 at 0 % serum
[5] = test system: Staphylococcus aureus; assay: Antibacterial activity against methicillin-resistant staphylococcus aureus ATCC 43300 at 10 % serum
[6] = test system: Enterococcus faecalis; assay: Antibacterial activity against Enterococcus faecalis ATCC 6569 at 0 % serum
[7] = test system: Enterococcus faecium; assay: Antibacterial activity against Enterococcus faecium ATCC 49452 at 10 % serum; details: ATCC 49452, Serum
[8] = test system: Enterococcus faecium; assay: Antibacterial activity against Enterococcus faecium ATCC 49452 at 0 % serum

SMILES | MIC [1] | MIC [2] | MIC [3] | MIC [4] | MIC [5] | MIC [6] | MIC [7] | MIC [8]
CCCCCCCCCC(=O)N[C@@H](Cc1c[nH]c2ccccc12)C(=O)N[C@H](CC(N)=O)C(=O)N[C@@H](CCO)C(=O)N[C@@H]1C(=O)NCC(=O)N[C@@H](CCCNCc2ccc(N3CCN(Cc4ccccc4)CC3)cc2)C(=O)N[C@@H](CC(=O)O)C(=O)N[C@H](C)C(=O)N[C@@H](CC(=O)O)C(=O)NCC(=O)N[C@H](CO)C(=O)N[C@@H]([C@H](C)CC(=O)O)C(=O)N[C@@H](CC(=O)c2ccccc2N)C(=O)O[C@@H]1C | 12.5 µg/mL (≈ 6.68 µM) | 0.78 µg/mL (≈ 0.417 µM) | 0.78 µg/mL (≈ 0.417 µM) | 0.78 µg/mL (≈ 0.417 µM) | 0.78 µg/mL (≈ 0.417 µM) | 6.25 µg/mL (≈ 3.34 µM) | 25 µg/mL (≈ 13.4 µM) | 12.5 µg/mL (≈ 6.68 µM)
CCCCCCCCCC(=O)N[C@@H](Cc1c[nH]c2ccccc12)C(=O)N[C@H](CC(N)=O)C(=O)N[C@@H](CCO)C(=O)N[C@@H]1C(=O)NCC(=O)N[C@@H](CCCNCc2ccccc2[N+](=O)[O-])C(=O)N[C@@H](CC(=O)O)C(=O)N[C@H](C)C(=O)N[C@@H](CC(=O)O)C(=O)NCC(=O)N[C@H](CO)C(=O)N[C@@H]([C@H](C)CC(=O)O)C(=O)N[C@@H](CC(=O)c2ccccc2N)C(=O)O[C@@H]1C | 25 µg/mL (≈ 14.4 µM) | 1.56 µg/mL (≈ 0.896 µM) | 0.78 µg/mL (≈ 0.448 µM) | 0.78 µg/mL (≈ 0.448 µM) | 0.78 µg/mL (≈ 0.448 µM) | 12.5 µg/mL (≈ 7.18 µM) | 25 µg/mL (≈ 14.4 µM) | 12.5 µg/mL (≈ 7.18 µM)
CCCCCCCCCC(=O)N[C@@H](Cc1c[nH]c2ccccc12)C(=O)N[C@H](CC(N)=O)C(=O)N[C@@H](CCO)C(=O)N[C@@H]1C(=O)NCC(=O)N[C@@H](CCCNCc2ccc(S(=O)(=O)N3CCN(c4ncccn4)CC3)cc2)C(=O)N[C@@H](CC(=O)O)C(=O)N[C@H](C)C(=O)N[C@@H](CC(=O)O)C(=O)NCC(=O)N[C@H](CO)C(=O)N[C@@H]([C@H](C)CC(=O)O)C(=O)N[C@@H](CC(=O)c2ccccc2N)C(=O)O[C@@H]1C | 6.25 µg/mL (≈ 3.25 µM) | 1.56 µg/mL (≈ 0.811 µM) | 0.39 µg/mL (≈ 0.203 µM) | 0.78 µg/mL (≈ 0.406 µM) | 1.56 µg/mL (≈ 0.811 µM) | 3.13 µg/mL (≈ 1.63 µM) | 12.5 µg/mL (≈ 6.5 µM) | 3.13 µg/mL (≈ 1.63 µM)
CCCCCCCCCC(=O)N[C@@H](Cc1c[nH]c2ccccc12)C(=O)N[C@H](CC(N)=O)C(=O)N[C@@H](CCO)C(=O)N[C@@H]1C(=O)NCC(=O)N[C@@H](CCCNCc2ccc(C(=O)N3CCN(Cc4ccccc4)CC3)cc2)C(=O)N[C@@H](CC(=O)O)C(=O)N[C@H](C)C(=O)N[C@@H](CC(=O)O)C(=O)NCC(=O)N[C@H](CO)C(=O)N[C@@H]([C@H](C)CC(=O)O)C(=O)N[C@@H](CC(=O)c2ccccc2N)C(=O)O[C@@H]1C | 6.25 µg/mL (≈ 3.29 µM) | 0.78 µg/mL (≈ 0.411 µM) | 0.39 µg/mL (≈ 0.205 µM) | 0.78 µg/mL (≈ 0.411 µM) | 0.39 µg/mL (≈ 0.205 µM) | 6.25 µg/mL (≈ 3.29 µM) | 6.25 µg/mL (≈ 3.29 µM) | 3.13 µg/mL (≈ 1.65 µM)
CCCCCCCCCC(=O)N[C@@H](Cc1c[nH]c2ccccc12)C(=O)N[C@H](CC(N)=O)C(=O)N[C@@H](CCO)C(=O)N[C@@H]1C(=O)NCC(=O)N[C@@H](CCCNCc2cccc(F)c2)C(=O)N[C@@H](CC(=O)O)C(=O)N[C@H](C)C(=O)N[C@@H](CC(=O)O)C(=O)NCC(=O)N[C@H](CO)C(=O)N[C@@H]([C@H](C)CC(=O)O)C(=O)N[C@@H](CC(=O)c2ccccc2N)C(=O)O[C@@H]1C | 12.5 µg/mL (≈ 7.29 µM) | 1.56 µg/mL (≈ 0.91 µM) | 0.78 µg/mL (≈ 0.455 µM) | 0.78 µg/mL (≈ 0.455 µM) | 0.56 µg/mL (≈ 0.327 µM) | 6.25 µg/mL (≈ 3.64 µM) | 12.5 µg/mL (≈ 7.29 µM) | 12.5 µg/mL (≈ 7.29 µM)
CCCCCCCCCC(=O)N[C@@H](Cc1c[nH]c2ccccc12)C(=O)N[C@H](CC(N)=O)C(=O)N[C@@H](CCO)C(=O)N[C@@H]1C(=O)NCC(=O)N[C@@H](CCCNCc2ccc(OCc3ccccc3)cc2O)C(=O)N[C@@H](CC(=O)O)C(=O)N[C@H](C)C(=O)N[C@@H](CC(=O)O)C(=O)NCC(=O)N[C@H](CO)C(=O)N[C@@H]([C@H](C)CC(=O)O)C(=O)N[C@@H](CC(=O)c2ccccc2N)C(=O)O[C@@H]1C | 50 µg/mL (≈ 27.5 µM) | 25 µg/mL (≈ 13.7 µM) | 1.56 µg/mL (≈ 0.858 µM) | 3.13 µg/mL (≈ 1.72 µM) | 12.5 µg/mL (≈ 6.87 µM) | 1.56 µg/mL (≈ 0.858 µM) | 100 µg/mL (≈ 55 µM) | 6.25 µg/mL (≈ 3.44 µM)

— ChEMBL document CHEMBL1136464, “Array synthesis of novel lipodepsipeptide” (Bioorg Med Chem Lett, 2003)
